# Like-named read-outs stand apart in the source and are kept apart here.
# Assays:
# CHO-K1 cells = assay: SRB cell viability (cytotoxicity), CHO-K1; format: cell-based; conditions: Cricetulus griseus, CHO-K1 nonmalignant cells, read-out: IC50 ± SEM CHO
# Method: (§1) Human colon cancer cell lines (SW480 and SW620), together with nonmalignant cells (CHO-K1 and HaCaT) were used to study the biological activity. Cells were purchased from the European Collection of Authenticated Cell Cultures (ECACC, UK). Dulbecco’s Modified Eagle Medium (DMEM) containing heat-inactivated (56 °C) horse serum (10%), non-essential amino acids (1%) and antibiotics (penicillin/streptomycin, 1%) (Gibco Invitrogen, Carlsbad, CA, USA) was used to maintain the cells, reducing the horse serum to 3%, and, adding insulin ([…]), transferrin ([…]) and selenium (5 ng/mL) (ITS-defined medium; Gibco, Invitrogen, Carlsbad, CA, USA) for all the experiments.
# (§2) The colorimetric test with Sulforhodamine B (SRB) was used to evaluate cell viability. Cell density was adjusted to seed 20.000 cells/well in 96-well tissue culture plates. Cells were first incubated for 24 h and then treated with the synthesized hybrids, the lead compounds (PIH and resveratrol), and the reference drug (5-FU) (concentrations between 0.01 and 200 µM), using DMSO (below 1%) as vehicle control. The optimum conditions were 37 °C and 5% CO2. After the end of each treatment, cold trichloroacetic acid (MERCK, 50% v/v) was added and preserved for one hour at 4 °C, to fix the cells. Then, cell proteins were stained with 0.4% (w/v) SRB (Sigma-Aldrich, St. Louis, MO, USA), and subsequently washed with acetic acid (1%) to remove unbound SRB. After air-drying, protein-bound SRB was solubilized in 10 mM Tris-base before reading the absorbance at 492 nm in a microplate reader (Mindray MR-96A). All experiments were performed at least three times.
# SW480 cells [1] = assay: Mitochondrial membrane potential (DiOC6/PI flow cytometry), SW480; format: cell-based, human; conditions: for Q1: PI-positive cells with membrane damage / Q2: PI-positive cells with membrane damage / Q3: DiOC6 high, live cells with high membrane polarization / Q4: DiOC6 low, cells in latency that lose membrane polarization: SW480, treated at IC50 value, DiOC6/PI
# Method: (§3) To evaluate changes in mitochondrial membrane permeability, the fluorescent dyes DiOC6 (3,3′-dihexyloxacarbocyanine iodide, Thermo Fisher Scientific, Waltham, MA, USA) and propidium iodide (PI) were used. Cell density was adjusted to seed 2.5 × 10^5 cells/well in 6-well tissue culture plates. […] Subsequently, cells were scraped with the same culture mean and stained with both fluorescent dyes, incubating at room temperature for 30 min in darkness. For each sample, 10,000 events were analyzed through flow cytometry with excitation at 488 nm and detection of the emission with the green (530/15 nm) and the red (610/20 nm) filters. The results informed about the cells with depolarized mitochondrial membranes.
# SW480 cells [2] = assay: Cell cycle analysis (PI flow cytometry), SW480; format: cell-based, human; conditions: SW480, 48 h treatment
# Method: Cell staining with the fluorescent propidium iodide (PI) was used to measure cell cycle distribution. The assays were carried out following the previous methodology described by Nicoletti et al. (1991). Briefly, 2.5 × 10^5 cells/well were seeded in 6-well tissue culture plates at 37 °C and 5% CO2. After 24 h of adherence, cells were treated during 48 h with hybrids 6e and 7, together with the vehicle control. At the end of each treatment, cells were scraped, and the centrifuged pellet was resuspended in 1.8 mL of 70% ethanol at 4 °C to fix the cells overnight. Then, after centrifugation, cells were washed twice in versene buffer to completely remove the alcohol, besides, they were further resuspended in 300 µL of PBS containing 0.25 mg/mL RNAse (Type I-A, Sigma-Aldrich, Darmstadt, Germany) and 0.1 mg/mL PI. After the incubation in the dark (for 30 min at room temperature), 10,000 events were analyzed with a FACS Canto II flow cytometer and the software BD FACS Diva 6.1.3. (BD Biosciences, San Jose, CA, USA). The PI fluorescence signal was analyzed with excitation at 488 nm (using a Sapphire laser), and detection at 610 nm. The cell cycle model was fixed with FlowJo 7.6.2 (Ashland, OR, USA), applying the Dean-Jett-Fox model.
# SW480 cells [3] = assay: SRB cell viability (cytotoxicity), SW480; format: cell-based, human; conditions: for Selectivity Index SI1: CHO-K1/SW480 IC50 ratio; for Selectivity Index SI2: HaCaT/SW480 IC50 ratio; for IC50: Homo sapiens, SW480, SRB, read-out: IC50 ± SEM SW480; for selectivity (SI): SW480 versus the nonmalignant cell lines, 48 h after treatment
# Method: as §1, §2
# HaCaT cells = assay: SRB cell viability (cytotoxicity), HaCaT; format: cell-based; conditions: Homo sapiens, HaCaT nonmalignant cells, read-out: IC50 ± SEM HACAT
# Method: as §1, §2
# SW480 cells [4] = assay: Antiproliferative activity (SRB, 2-8 days), SW480; format: cell-based; conditions: Homo sapiens, read-out: Viability (%) ± SE; for viability at 3 µM: SW480, 3 µM; for viability at 6 µM: SW480, 6 µM; for viability at 12 µM: SW480, 12 µM; for viability at 24 µM: SW480, 24 µM; for viability at 48 µM: SW480, 48 µM
# Method: The procedure for evaluating the antiproliferative activity was carried out using the same colorimetric test (SRB) described for cell viability, with minor modifications. Briefly, 2500 cells/well were seeded in 96-well tissue culture plates and incubated as in the previously described conditions for 0, 2, 4, 6, and 8 days. […] The culture medium was changed every 48 h. After each incubation time, cells were fixed, stained, and read as previously described for this technique.
# SW620 cells [5] = assay: SRB cell viability (cytotoxicity), SW620; format: cell-based, human; conditions: for Selectivity Index SI3: CHO-K1/SW620 IC50 ratio; for Selectivity Index SI4: HaCaT/SW620 IC50 ratio; for IC50: Homo sapiens, SW-620, SRB, read-out: IC50 ± SEM SW620
# Method: as §1, §2
# SW620 cells [6] = assay: Mitochondrial membrane potential (DiOC6/PI flow cytometry), SW620; format: cell-based, human; conditions: SW620, treated at IC50 value
# Method: as §3
smiles,measurement,setting,value
"COc1ccc(C(=O)N/N=C/c2c(O)cc(O)cc2/C=C/c2ccc(O)cc2)c(OC)c1 [6e, N′-((E)-2,4-dihydroxy-6-((E)-4-hydroxystyryl)benzylidene)-2,4-dimethoxybenzohydrazide]",IC50,CHO-K1 cells; 24 H,20.6 ± 3.06 µM
same,IC50,CHO-K1 cells; 48 H,18.8 ± 1.9 µM
same,Q1: PI-positive cells with membrane damage,SW480 cells [1],0.288%
same,Q2: PI-positive cells with membrane damage,SW480 cells [1],0.831%
same,"Q3: DiOC6 high, live cells with high membrane polarization",SW480 cells [1],98.6%
same,"Q4: DiOC6 low, cells in latency that lose membrane polarization",SW480 cells [1],0.305%
same,Cell cycle distribution G0/G1,SW480 cells [2],58.95%
same,Cell cycle distribution G2/M,SW480 cells [2],21.31%
same,Selectivity Index SI1,SW480 cells [3]; 24 H,0.85
same,Selectivity Index SI2,SW480 cells [3]; 24 H,1.42
same,Selectivity Index SI1,SW480 cells [3]; 48 H,2.89
same,Selectivity Index SI2,SW480 cells [3]; 48 H,2.94
same,IC50,SW480 cells [3]; 24 H,24.2 ± 3.29 µM
same,IC50,SW480 cells [3]; 48 H,6.5 ± 1.9 µM
same,selectivity (SI),SW480 cells [3],> 1
same,IC50,HaCaT cells; 24 H,34.4 ± 3.96 µM
same,IC50,HaCaT cells; 48 H,19.1 ± 0.8 µM
same,viability at 3 µM,"SW480 cells [4]; 48 h, 2 days after plating",95 ± 3.11%
same,viability at 6 µM,"SW480 cells [4]; 48 h, 2 days after plating",58.9 ± 0.89%
same,viability at 12 µM,"SW480 cells [4]; 48 h, 2 days after plating",38.4 ± 2.67%
same,viability at 24 µM,"SW480 cells [4]; 48 h, 2 days after plating",23.9 ± 0.82%
same,viability at 48 µM,"SW480 cells [4]; 48 h, 2 days after plating",9.44 ± 1.17%
same,viability at 3 µM,"SW480 cells [4]; 96 h, 4 days after plating",68.5 ± 1.31%
same,viability at 6 µM,"SW480 cells [4]; 96 h, 4 days after plating",10.5 ± 0.87%
same,viability at 12 µM,"SW480 cells [4]; 96 h, 4 days after plating",2.78 ± 0.42%
same,viability at 24 µM,"SW480 cells [4]; 96 h, 4 days after plating",0.81 ± 0.38%
same,viability at 48 µM,"SW480 cells [4]; 96 h, 4 days after plating",0.3 ± 0.33%
same,viability at 3 µM,"SW480 cells [4]; 144 h, 6 days after plating",49 ± 2.08%
same,viability at 6 µM,"SW480 cells [4]; 144 h, 6 days after plating",5.03 ± 0.19%
same,viability at 12 µM,"SW480 cells [4]; 144 h, 6 days after plating",0.76 ± 0.36%
same,viability at 24 µM,"SW480 cells [4]; 144 h, 6 days after plating",0%
same,viability at 48 µM,"SW480 cells [4]; 144 h, 6 days after plating",0%
same,viability at 3 µM,"SW480 cells [4]; 192 h, 8 days after plating",33.86 ± 0.3%
same,viability at 6 µM,"SW480 cells [4]; 192 h, 8 days after plating",2.52 ± 0.1%
same,viability at 12 µM,"SW480 cells [4]; 192 h, 8 days after plating",0.48 ± 0.11%
same,viability at 24 µM,"SW480 cells [4]; 192 h, 8 days after plating",0%
same,viability at 48 µM,"SW480 cells [4]; 192 h, 8 days after plating",0%
same,Selectivity Index SI3,SW620 cells [5]; 24 H,0.28
same,Selectivity Index SI4,SW620 cells [5]; 24 H,0.46
same,Selectivity Index SI3,SW620 cells [5]; 48 H,0.67
same,Selectivity Index SI4,SW620 cells [5]; 48 H,0.69
same,IC50,SW620 cells [5]; 24 H,74.8 ± 12.9 µM
same,IC50,SW620 cells [5]; 48 H,27.8 ± 3.9 µM
"O=C(N/N=C/c1c(O)cc(O)cc1/C=C/c1ccc(O)cc1)c1ccncc1 [compound 7, N′-((E)-2,4-dihydroxy-6-((E)-4-hydroxystyryl)benzylidene)isonicotinohydrazide]",IC50,CHO-K1 cells; 24 H,67.2 ± 4.32 µM
same,IC50,CHO-K1 cells; 48 H,40.5 ± 2.4 µM
same,effect on mitochondrial membrane potential (ΔΨm),"SW480 cells [1]; SW480, regarding the control, increase in DiOC6 low population",causing depolarization in the mitochondrial membrane
same,Q1: PI-positive cells with membrane damage,SW480 cells [1],1.24%
same,Q2: PI-positive cells with membrane damage,SW480 cells [1],0.052%
same,"Q3: DiOC6 high, live cells with high membrane polarization",SW480 cells [1],67.3%
same,"Q4: DiOC6 low, cells in latency that lose membrane polarization",SW480 cells [1],31.4%
same,Selectivity Index SI1,SW480 cells [3]; 24 H,0.80
same,Selectivity Index SI2,SW480 cells [3]; 24 H,0.94
same,Selectivity Index SI1,SW480 cells [3]; 48 H,2.14
same,Selectivity Index SI2,SW480 cells [3]; 48 H,2.49
same,IC50,SW480 cells [3]; 24 H,84.2 ± 10 µM
same,IC50,SW480 cells [3]; 48 H,19 ± 1.4 µM
same,selectivity (SI),SW480 cells [3],> 1
same,IC50,HaCaT cells; 24 H,79 ± 6.73 µM
same,IC50,HaCaT cells; 48 H,47.3 ± 2.5 µM
same,Q1: PI-positive cells with membrane damage,SW620 cells [6],2.19%
same,Q2: PI-positive cells with membrane damage,SW620 cells [6],1.54%
same,"Q3: DiOC6 high, live cells with high membrane polarization",SW620 cells [6],89.3%
same,"Q4: DiOC6 low, cells in latency that lose membrane polarization",SW620 cells [6],6.99%
same,viability at 3 µM,"SW480 cells [4]; 48 h, 2 days after plating",100%
same,viability at 6 µM,"SW480 cells [4]; 48 h, 2 days after plating",90.5 ± 1.38%
same,viability at 12 µM,"SW480 cells [4]; 48 h, 2 days after plating",59.1 ± 0.27%
same,viability at 24 µM,"SW480 cells [4]; 48 h, 2 days after plating",27.2 ± 0.5%
same,viability at 48 µM,"SW480 cells [4]; 48 h, 2 days after plating",19.6 ± 2.58%
same,viability at 3 µM,"SW480 cells [4]; 96 h, 4 days after plating",99.45 ± 0.55%
same,viability at 6 µM,"SW480 cells [4]; 96 h, 4 days after plating",78.5 ± 1.56%
same,viability at 12 µM,"SW480 cells [4]; 96 h, 4 days after plating",11.4 ± 0.35%
same,viability at 24 µM,"SW480 cells [4]; 96 h, 4 days after plating",0%
same,viability at 48 µM,"SW480 cells [4]; 96 h, 4 days after plating",0%
same,viability at 3 µM,"SW480 cells [4]; 144 h, 6 days after plating",96.87 ± 0.14%
same,viability at 6 µM,"SW480 cells [4]; 144 h, 6 days after plating",67.4 ± 1.82%
same,viability at 12 µM,"SW480 cells [4]; 144 h, 6 days after plating",5.49 ± 0.05%
same,viability at 24 µM,"SW480 cells [4]; 144 h, 6 days after plating",0%
same,viability at 48 µM,"SW480 cells [4]; 144 h, 6 days after plating",0%
same,viability at 3 µM,"SW480 cells [4]; 192 h, 8 days after plating",74.76 ± 0.02%
same,viability at 6 µM,"SW480 cells [4]; 192 h, 8 days after plating",48.5 ± 1.11%
same,viability at 12 µM,"SW480 cells [4]; 192 h, 8 days after plating",2.52 ± 0.22%
same,viability at 24 µM,"SW480 cells [4]; 192 h, 8 days after plating",0%
same,viability at 48 µM,"SW480 cells [4]; 192 h, 8 days after plating",0%
same,Selectivity Index SI3,SW620 cells [5]; 24 H,0.55
same,Selectivity Index SI4,SW620 cells [5]; 24 H,0.64
same,Selectivity Index SI3,SW620 cells [5]; 48 H,1.06
same,IC50,SW620 cells [5]; 24 H,122 ± 10.8 µM
same,IC50,SW620 cells [5]; 48 H,38.4 ± 3.3 µM
same,selectivity (SI),"SW620 cells [5]; SW620 versus the nonmalignant cell lines, 48 h after treatment",> 1

# From article PMC9694494, “Resveratrol/Hydrazone Hybrids: Synthesis and Chemopreventive Activity against Colorectal Cancer Cells” (Pharmaceutics, 2022)
